± gives the uncertainty stated by the source.
Experiment: xn = mol fraction of the nth substance listed
Conditions: for electrical conductivity: 101 kPa, frequency 2 MHz; for viscosity: 100 kPa

O=S(=O)([O-])C(F)(F)F.[Li+] + O=S(=O)([N-]S(=O)(=O)C(F)(F)F)C(F)(F)F.[Li+] + O
Conditions | electrical conductivity, 298.1 K [S/m] | electrical conductivity, 303 K [S/m] | electrical conductivity, 308.1 K [S/m] | electrical conductivity, 313 K [S/m] | viscosity, 298.15 K [mPa·s] | viscosity, 308.15 K [mPa·s]
x1 = 0.04029, x2 = 0.1114 | – | – | – | – | 7.5 ± 0.6 | 5.6 ± 0.5
x1 = 0.07222, x2 = 0.1893 | – | – | – | – | 29.1 ± 2.3 | 20.6 ± 1.7
x1 = 0.09226, x2 = 0.2336 | – | – | – | – | 69 ± 6 | 45.7 ± 3.7
x1 = 0.1024, x2 = 0.2553 | – | – | – | – | 98 ± 8 | 63 ± 5
x1 = 0.1122, x2 = 0 | – | – | – | – | 3.7 ± 0.3 | 2.9 ± 0.2
x1 = 0.1122, x2 = 0.2745 | – | – | – | – | 152 ± 13 | 94.6 ± 7.8
x1 = 0.1783, x2 = 0 | – | – | – | – | 9.2 ± 0.7 | 6.9 ± 0.6
x1 = 0.2388, x2 = 0 | – | – | – | – | 21.9 ± 1.8 | 16 ± 1.3
x1 = 0.2541, x2 = 0 | – | – | – | – | 31.8 ± 2.6 | 22.6 ± 1.8
x1 = 0.2743, x2 = 0 | – | – | – | – | 47.2 ± 3.8 | 32.9 ± 2.6
x2 = 0.001799, x1 = 0.0005943 | – | 0.867 ± 0.009 | 0.961 ± 0.01 | 1.06 ± 0.011 | – | –
x2 = 0.005377, x1 = 0.001799 | – | 2.117 ± 0.021 | 2.36 ± 0.024 | 2.61 ± 0.026 | – | –
x2 = 0.00893, x1 = 0.003054 | 2.76 ± 0.028 | 3.1 ± 0.031 | 3.46 ± 0.035 | 3.835 ± 0.038 | – | –
x2 = 0.01246, x1 = 0.004127 | 3.46 ± 0.035 | 3.9 ± 0.039 | 4.36 ± 0.044 | 4.834 ± 0.048 | – | –
x2 = 0.01596, x1 = 0.005377 | 4.045 ± 0.04 | 4.56 ± 0.046 | 5.1 ± 0.051 | 5.66 ± 0.057 | – | –
x2 = 0.01944, x1 = 0.006623 | 4.522 ± 0.045 | 5.1 ± 0.051 | 5.702 ± 0.057 | 6.331 ± 0.063 | – | –
x2 = 0.05129, x1 = 0.0177 | 6.08 ± 0.061 | 6.85 ± 0.069 | 7.67 ± 0.077 | 8.518 ± 0.085 | – | –
x2 = 0.08265, x1 = 0.02921 | 5.326 ± 0.053 | 6.011 ± 0.06 | 6.732 ± 0.067 | 7.48 ± 0.075 | – | –
x2 = 0.112, x1 = 0.04029 | 4.123 ± 0.041 | 4.67 ± 0.047 | 5.239 ± 0.052 | 5.838 ± 0.058 | – | –
x2 = 0.1395, x1 = 0.05129 | 3.035 ± 0.03 | 3.45 ± 0.035 | 3.89 ± 0.039 | 4.36 ± 0.044 | – | –
x2 = 0.1654, x1 = 0.06203 | 2.18 ± 0.022 | 2.5 ± 0.025 | 2.839 ± 0.028 | 3.201 ± 0.032 | – | –
x2 = 0.1898, x1 = 0.07238 | 1.55 ± 0.016 | 1.79 ± 0.018 | 2.05 ± 0.021 | 2.334 ± 0.023 | – | –
x2 = 0.2128, x1 = 0.08265 | 1.09 ± 0.011 | 1.28 ± 0.013 | 1.48 ± 0.015 | 1.7 ± 0.017 | – | –
x2 = 0.2345, x1 = 0.0927 | 0.768 ± 0.008 | 0.908 ± 0.009 | 1.06 ± 0.011 | 1.234 ± 0.012 | – | –
x2 = 0.2551, x1 = 0.1024 | 0.537 ± 0.005 | 0.643 ± 0.006 | 0.763 ± 0.008 | 0.895 ± 0.009 | – | –
x2 = 0.2745, x1 = 0.112 | 0.374 ± 0.004 | 0.454 ± 0.005 | 0.545 ± 0.005 | 0.647 ± 0.006 | – | –

Reference: the CheMixHub ionic liquid set
